Results taken from article PMC6286365 (Scientific Reports, 2018).

Key:
alkaline phosphatase = assay: Counter assay without nSMase2 and SM, phosphorylcholine as substrate (enzyme-coupled detection reactions); format: biochemical; conditions: no nSMase2, no SM; phosphorylcholine 2 μM as substrate
[1] = Metabolic stability in mouse liver microsomes with NADPH; format: in vitro ADME; conditions: pH 7.4, 1 μM compound, read-out: percent remaining
Experimental: One potential liability when using chemical probes in vivo is lack of metabolic stability which structurally inactivates the compound before it can reach its molecular target. […] Percent of drug remaining over time was determined by liquid chromatography–tandem mass spectrometry analysis (LC/MS/MS).
Metabolic stability assay was conducted in mouse or human liver microsomes as we have described previously with minor modifications. Briefly, the reaction was carried out using potassium phosphate buffer (100 mM, pH 7.4), in the presence of an NADPH regenerating system (compound final concentration was 1 μM; 0.2 mg/mL microsomes). Compound disappearance was monitored over time using a liquid chromatography and tandem mass spectrometry (LC/MS/MS) method. Chromatographic analysis was performed using an Accela ultra high-performance system consisting of an analytical pump and an autosampler coupled with a TSQ Vantage mass spectrometer (Thermo Fisher Scientific Inc., Waltham, MA). […] The mobile phase consisted of 0.1% formic acid in acetonitrile and 0.1% formic acid in water with gradient elution.

Rat primary astrocytes = assay: Astrocyte activation, GFAP immunofluorescence (+/-) serum deprivation; format: cell-based; conditions: 10 μM, 2 h
Experimental: Independent laboratories have shown that pharmacological and genetic inhibition of nSMase2 blocks EV secretion from glial cells. […] Two hours after treatment, EVs were isolated from the media and quantified by nanoparticle tracking analysis. […] Cells were fixed and immunofluorescence labeling for GFAP was performed.
Media was collected after 2 h incubation and centrifuged at 2700 × g for 15 min at 4 °C. Supernatant was collected and the number of extracellular vesicles (EVs) was quantified using ZetaView Nanoparticle Tracker. The mean concentration of EVs/mL (±SEM) was calculated from 4 replicate experiments. […] Astrocytes grown in complete medium were used as no treatment control. Cells were fixed and stained with anti-GFAP antibody (1:500, Sigma). Fluorescence intensity was measured using Image J. (C) Quantitation of fluorescence in (B). Bar graph represents background corrected mean fluorescence intensity measured from 100 astrocytes per condition. Error bars represent standard error of mean. One-way ANOVA followed by Tukey’s posthoc test was performed.

GFAP-GFP mice = assay: Striatal IL-1β brain inflammation model: neutrophil infiltration into brain (Ly6b immunohistochemistry); format: in vivo, mouse; conditions: 10 mg/kg IP 0.5 h before and 12 h after IL-1β; 24 h
Experimental: As we have previously shown[11],[18], striatal injection of IL-1β in mice expressing GFP-GFAP in astroglia triggers a release of GFP-labelled EVs that rapidly enter into plasma, resulting in cytokine upregulation in liver and peripheral immune cell migration into brain[11]. […] There were two groups of mice: the first group was sacrificed 2 h after IL-1β administration by heart puncture, and GFP-labeled circulating EVs were measured with liver cytokines. […] Counting of astrocyte-released EV (GFP+) from blood and liver cytokine analysis was conducted by single injection of DPTIP. […]
Compounds were given 0.5 h before IL-1β dosing. […] (C) Liver cytokine levels under different treatments as measured by qRT-PCR of RNA isolated from fresh frozen liver tissue. Samples were analyzed in triplicate. **p < 0.01 and *p < 0.05 compared to saline control; ^##p < 0.01 and ^#p < 0.05 compared to IL1-β group. (D) Neutrophil levels in brain as measured by immunohistochemistry using coronal brain sections and Ly6b antibody. (E) Quantitation of (D); **p < 0.01 compared to saline control; ^##p < 0.01 compared to IL1-β group.
Coronal brain sections (30 µm) were prepared using a cryostat microtome (Leica). […] Stereological quantitation was performed using a one-in-five series (270-µm spacing), from the rostral point of bregma +1.10 mm to the caudal point of bregma −0.58 mm as previously described.

SMILES: COc1cc(-c2nc(-c3cccs3)c(-c3ccccc3)[nH]2)cc(OC)c1O [DPTIP, 2,6-Dimethoxy-4-(5-Phenyl-4-Thiophen-2-yl-1H-Imidazol-2-yl)-Phenol]
- IC50 (alkaline phosphatase): > 100 µM
- remaining at 1 h, 1 μM [1]: 100%
- effect on GFAP levels without serum starvation (Rat primary astrocytes; no serum starvation): did not change GFAP levels
- effect on astrocyte activation (GFAP) in response to serum starvation (Rat primary astrocytes; with serum deprivation): prevented astrocyte activation
- reduction of neutrophil migration into brain compared to IL-1β-treated animals (GFAP-GFP mice): 80 ± 23%
